From patent US20230348447A1, “OXAZOLIDINONE COMPOUNDS, LIPOSOME COMPOSITIONS COMPRISING OXAZOLIDINONE COMPOUNDS AND METHOD OF USE THEREOF” (priority 2020, published 2023)
≈ marks a conversion by molar mass, not a printed value. Like-named read-outs stand apart in the source and are kept apart here.

Experiments:
[1] = system: M.tb Erdman; assay: Broth microdilution MIC with Alamar blue endpoint (MABA) / OD600; assay type: cell-based, Mycobacterium tuberculosis
[2] = system: M.tb H37Rv; assay: as above; assay type: cell-based, Mycobacterium tuberculosis
[3] = system: M. Tuberculosis Erdman or H37Rv vs VERO or HepG2 cells; assay: Selectivity Index (mammalian cell IC50 / bacterial MIC); set-up: species or system Mycobacterium tuberculosis
[4] = system: African green monkey kidney (Vero; ATCC # CCL81) cells; assay: In vitro cytotoxicity (PrestoBlue cell viability), Vero; assay type: cell-based
[5] = system: human hepatocyte/liver (HepG2; ATCC #HB8065) cells; assay: In vitro cytotoxicity (PrestoBlue cell viability), HepG2; assay type: cell-based
[6] = system: MRSA ATCC 43300; assay: MIC against methicillin resistant Staphylococcus aureus (MRSA); conditions: read-out: MRSA MIC, ATCC 43300
[7] = system: MRSA ATCC BAA-1556; assay: as above
[8] = system: MRSA 880 NR-49120; assay: as above; conditions: read-out: MRSA MIC, 880 NR-49120
[9] = Liposome loading / encapsulation efficiency (General protocol)
[10] = system: MRSA strain MW-2 (USA 400); assay: Rabbit left-sided aortic valve endocarditis model of MRSA; assay type: in vivo, Staphylococcus aureus (in New Zealand white rabbits); conditions: for Kidneys, MRSA count / Liver, MRSA count / Lungs, MRSA count / Spleen, MRSA count / Vegetations, MRSA count: rabbits, DAP 2 mg/kg daily for four days alone
[11] = Mycobacterium tuberculosis, ERDMAN, read-out: Mycobacterium tuberculosis MIC, Erdman
[12] = Mycobacterium tuberculosis, H37RV, read-out: Mycobacterium tuberculosis MIC, H37Rv
[13] = Chlorocebus sabaeus, Vero, 72 h, read-out: Cell viability IC50, VERO
[14] = Homo sapiens, HepG2, 72 h, read-out: Cell viability IC50, HepG2
[15] = Mycobacterium tuberculosis, ERDMAN; read-out: Mycobacterium tuberculosis MIC, Erdman
[16] = Mycobacterium tuberculosis, H37RV; read-out: Mycobacterium tuberculosis MIC, H37Rv
[17] = Chlorocebus sabaeus, Vero, 72 h; read-out: Cell viability IC50, VERO
[18] = Homo sapiens, HepG2, 72 h; read-out: Cell viability IC50, HepG2

Row | SMILES | Selectivity Index (SI) Erd/HepG2 [3] | Selectivity Index (SI) Erd/VERO [3] | MIC [1, 15] | MIC [2, 16] | IC50 [4, 17] | IC50 [5, 18] | also measured
1 | CCN(CC)CCNC[C@H]1CN(c2ccc(-c3ccc(-c4nnn(C)n4)nc3)c(F)c2)C(=O)O1 [AKG-9] | <3.5 | <17.4 |  |  |  |  | MIC [1, 11]: > 8 µg/mL; MIC [2, 12]: > 8 µg/mL; IC50 [4, 13]: 139 µg/mL (≈ 297 µM); IC50 [5, 14]: 28.1 µg/mL (≈ 60 µM)
2 | CCN(CC)C[C@H]1CN(c2ccc(-c3ccc(-c4nnn(C)n4)nc3)c(F)c2)C(=O)O1 [AKG-2] | <3.1 | <8.5 | > 8 µg/mL | > 8 µg/mL | 67.9 µg/mL (≈ 160 µM) | 24.5 µg/mL (≈ 57.6 µM) | 
3 | Cl.Cn1nnc(-c2ccc(-c3ccc(N4C[C@H](CNC(=O)CCN)OC4=O)cc3F)cn2)n1 [AKG-19] | 5.3 | >31.3 | > 8 µg/mL | > 8 µg/mL | > 250 µg/mL | 42.2 µg/mL | 
4 | CCN(CC)CCCNc1ccc(-c2ccc(N3C[C@H](CO)OC3=O)cc2F)cn1 [AKG-15] | <4.5 | <19.5 | > 8 µg/mL | > 8 µg/mL | 156 µg/mL (≈ 375 µM) | 35.6 µg/mL (≈ 85.5 µM) | 
5 | CN(C)CCCNc1ccc(-c2ccc(N3C[C@H](CO)OC3=O)cc2F)cn1 [AKG-14] |  |  | 8 µg/mL (≈ 20.6 µM) | 8 µg/mL (≈ 20.6 µM) |  |  | 
6 | CCN(CC)CCCNC[C@H]1CN(c2ccc(-c3ccc(-c4nnn(C)n4)nc3)c(F)c2)C(=O)O1 [AKG-8] |  |  |  |  |  |  | MIC [1, 11]: > 8 µg/mL; MIC [2, 12]: > 8 µg/mL
7 | Cl.NCCCn1nnc(-c2ccc(-c3ccc(N4C[C@H](CO)OC4=O)cc3F)cn2)n1 [AKG-27] | 18.0 | 11.2 | 0.5 µg/mL | 0.5 µg/mL | 5.6 µg/mL | 9 µg/mL | 
8 | CN(C)CCC1CCN(c2ccc(-c3ccc(N4C[C@H](CO)OC4=O)cc3F)cn2)CC1 [AKG-11] | 10.7 | 8.0 | 4 µg/mL (≈ 9.04 µM) | 4 µg/mL (≈ 9.04 µM) | 31.9 µg/mL (≈ 72.1 µM) | 42.8 µg/mL (≈ 96.7 µM) | 
9 | CN(C)CCn1nnnc1-c1ccc(-c2ccc(N3C[C@H](CO)OC3=O)cc2F)cn1 [AKG-21] | <19.5 |  | > 8 µg/mL | > 8 µg/mL | > 250 µg/mL | 156 µg/mL (≈ 366 µM) | 
10 | CCN(CC)CCCn1nnc(-c2ccc(-c3ccc(N4C[C@H](CO)OC4=O)cc3F)cn2)n1 [AKG-26] | 4.5 | 64.3 | 2 µg/mL (≈ 4.26 µM) | 2 µg/mL (≈ 4.26 µM) | 128 µg/mL (≈ 274 µM) | 9 µg/mL (≈ 19.2 µM) | 
11 | CN(C)CCCn1nnc(-c2ccc(-c3ccc(N4C[C@H](CN)OC4=O)cc3F)cn2)n1 [AKG-30] | 151.2 | 884.0 |  |  |  |  | MIC [1, 11]: 0.125 µg/mL (≈ 0.284 µM); MIC [2, 12]: 0.125 µg/mL (≈ 0.284 µM); MIC [6]: > 50 µg/mL; MIC ([7]; read-out: MRSA MIC): > 50 µg/mL; MIC ([7]; read-out: MRSA MIC, ATCC BAA-1556): > 50 µg/mL; IC50 [4, 13]: 110 µg/mL (≈ 251 µM); MIC [8]: > 50 µg/mL; IC50 [5, 14]: 18.9 µg/mL (≈ 42.9 µM)
12 | CN(C)CCCC(=O)OC[C@H]1CN(c2ccc(-c3ccc(-c4nnn(C)n4)nc3)c(F)c2)C(=O)O1 [AKG-5] | 30.8 |  | 1 µg/mL (≈ 2.07 µM) | 1 µg/mL (≈ 2.07 µM) | 32.5 µg/mL (≈ 67.2 µM) | 30.8 µg/mL (≈ 63.7 µM) | Maximum encapsulated drug payload ([9]; 0.5 M AS, 0.5 mol% PEG): 627 g/mol PhL; loading efficiency at or near the maximum drug load ([9]; 1 N TEA-SOS, DL0 750-1500 g/mol PhL): ≥ 96.0%; maximum drug load ([9]; 1 N TEA-SOS, DL0 750-1500 g/mol PhL, no buffer): 982-1197 g/mol PhL; stability during liposome loading (HPLC) ([9]; Example 12): Degradation of AKG-5 during the liposome loading was detected; Drug loading efficiency ([9]; PEG-DSG 0.5 mol%, 1 N TEA-SOS, DL0 500 g/mol PhL): 101.3; Drug loading efficiency ([9]; PEG-DSG 0.5 mol%, […] AS, DL0 250 g/mol PhL): 98.5; Drug loading efficiency ([9]; PEG-DSG 0.5 mol%, […] AS, DL0 500 g/mol PhL): 97.7; Drug loading efficiency ([9]; PEG-DSG 5 mol%, 1 N TEA-SOS, DL0 500 g/mol PhL): 99.3
13 | CCN(CC)CCNc1ccc(-c2ccc(N3C[C@H](CO)OC3=O)cc2F)cn1 [AKG-13] | <4.0 | <11.7 | > 8 µg/mL | > 8 µg/mL | 93.9 µg/mL (≈ 233 µM) | 31.8 µg/mL (≈ 79 µM) | 
14 | CCCCCCCCCC(=O)N[C@@H](Cc1c[nH]c2ccccc12)C(=O)N[C@H](CC(N)=O)C(=O)N[C@@H](CC(=O)O)C(=O)N[C@@H]1C(=O)NCC(=O)N[C@@H](CCCN)C(=O)N[C@@H](CC(=O)O)C(=O)N[C@H](C)C(=O)N[C@@H](CC(=O)O)C(=O)NCC(=O)N[C@H](CO)C(=O)N[C@@H]([C@H](C)CC(=O)O)C(=O)N[C@@H](CC(=O)c2ccccc2N)C(=O)O[C@@H]1C [Daptomycin] |  |  |  |  |  |  | efficacy on day 6 post inoculation ([10]; DAP 2 mg/kg daily x4 alone or plus a single dose of Ls-AKG38 40 mg/kg): no significant efficacy; Kidneys, MRSA count ([10]; (relapse)): 8.11 ± 0.49 log10 cfu/gm of tissue; Liver, MRSA count ([10]; (relapse)): 7.65 ± 0.26 log10 cfu/gm of tissue; Lungs, MRSA count ([10]; (relapse)): 8.00 ± 0.66 log10 cfu/gm of tissue; Spleen, MRSA count ([10]; (relapse)): 7.91 ± 0.54 log10 cfu/gm of tissue; Vegetations, MRSA count ([10]; (relapse)): 9.18 ± 0.22 log10 cfu/gm of tissue; Kidneys, MRSA count ([10]; day 6): 6.90 ± 0.61 log10 cfu/gm of tissue; Liver, MRSA count ([10]; day 6): 6.77 ± 0.90 log10 cfu/gm of tissue; Lungs, MRSA count ([10]; day 6): 6.37 ± 0.64 log10 cfu/gm of tissue; Spleen, MRSA count ([10]; day 6): 7.43 ± 0.38 log10 cfu/gm of tissue; Vegetations, MRSA count ([10]; day 6): 8.13 ± 0.17 log10 cfu/gm of tissue
15 | Cl.Cn1nnc(-c2ccc(-c3ccc(N4C[C@H](CNC(=O)CCCN)OC4=O)cc3F)cn2)n1 [AKG-18] |  |  |  |  |  |  | Mycobacterium tuberculosis MIC, Erdman [1]: 2 µg/mL; Mycobacterium tuberculosis MIC, H37Rv [2]: 2 µg/mL; Cell viability IC50, VERO ([4]; 72 h): >250 µg/mL; Cell viability IC50, HepG2 ([5]; 72 h): 9.5 µg/mL
16 | CN(C)C[C@H]1CN(c2ccc(-c3ccc(-c4nnn(C)n4)nc3)c(F)c2)C(=O)O1 [AKG-1] | <14.5 | <14.1 | > 8 µg/mL | > 8 µg/mL | 113 µg/mL (≈ 283 µM) | 116 µg/mL (≈ 292 µM) | 
17 | CCN(CC)CCC(=O)OC[C@H]1CN(c2ccc(-c3ccc(-c4nnn(C)n4)nc3)c(F)c2)C(=O)O1 [AKG-20] | 30.2 | >500 | 0.5 µg/mL (≈ 1 µM) | 0.5 µg/mL (≈ 1 µM) | > 250 µg/mL | 15.1 µg/mL (≈ 30.3 µM) | 
18 | COc1nc2ccc(Br)cc2cc1[C@@H](c1ccccc1)[C@@](O)(CCN(C)C)c1cccc2ccccc12 [Bedaquiline, reference compound] |  |  |  |  |  |  | MIC ([1]; Mycobacterium tuberculosis; M. tuberculosis Erdman / H37Rv, strains not separated; read-out: MIC): 0.125 µg/mL (≈ 0.225 µM)
19 | Cl.NCCn1nnc(-c2ccc(-c3ccc(N4C[C@H](CO)OC4=O)cc3F)cn2)n1 [AKG-23] | 29.2 | >1000 | 0.25 µg/mL | 0.25 µg/mL | > 250 µg/mL | 7.3 µg/mL | 
20 | CCN(CC)CCCn1nnc(-c2ccc(-c3ccc(N4C[C@H](CN)OC4=O)cc3F)cn2)n1 [AKG-31] | 26.4 | 223.0 |  |  |  |  | 
21 | CN(C)CCC1CCN(C[C@H]2CN(c3ccc(-c4ccc(-c5nnn(C)n5)nc4)c(F)c3)C(=O)O2)CC1 [AKG-6] | <1.9 | 3.4 | > 8 µg/mL | > 8 µg/mL | 27.4 µg/mL (≈ 53.9 µM) | 15.5 µg/mL (≈ 30.5 µM) | 
22 | CN(C)CCNc1ccc(-c2ccc(N3C[C@H](CO)OC3=O)cc2F)cn1 [AKG-12] | 16.9 | 22.3 |  |  |  |  | MIC [1, 11]: 4 µg/mL (≈ 10.7 µM); MIC [2, 12]: 4 µg/mL (≈ 10.7 µM); IC50 [4, 13]: 89.1 µg/mL (≈ 238 µM); IC50 [5, 14]: 67.6 µg/mL (≈ 181 µM)
23 | Cl.Cn1nnc(-c2ccc(-c3ccc(N4C[C@H](CNC(=O)CCN)OC4=O)cc3F)cn2)n1 [AKG-17] |  |  |  |  |  |  | Mycobacterium tuberculosis MIC, Erdman [1]: 2 µg/mL; Mycobacterium tuberculosis MIC, H37Rv [2]: 2 µg/mL; Cell viability IC50, VERO ([4]; 72 h): >250 µg/mL; Cell viability IC50, HepG2 ([5]; 72 h): 37.3 µg/mL
24 | CCN(CC)CCOC[C@H]1CN(c2ccc(-c3ccc(-c4nnn(C)n4)nc3)c(F)c2)C(=O)O1 [AKG-7] | <1.4 | 13.0 | > 8 µg/mL | > 8 µg/mL | 104 µg/mL (≈ 221 µM) | 11.2 µg/mL (≈ 23.9 µM) | 
25 | CCN(CC)CCn1nnc(-c2ccc(-c3ccc(N4C[C@H](CO)OC4=O)cc3F)cn2)n1 [AKG-24] | 11.4 | 31.3 | 1 µg/mL (≈ 2.2 µM) | 1 µg/mL (≈ 2.2 µM) | 31.3 µg/mL (≈ 68.7 µM) | 11.4 µg/mL (≈ 25 µM) | 
26 | CN(C)CCCn1nnc(-c2ccc(-c3ccc(N4C[C@H](CO)OC4=O)cc3F)cn2)n1 [AKG-25] | 9.4 | 182.0 | 1 µg/mL (≈ 2.27 µM) | 1 µg/mL (≈ 2.27 µM) | 182 µg/mL (≈ 412 µM) | 9.4 µg/mL (≈ 21.3 µM) | 
